The record followed here is the NIST ThermoML archive (doi:10.1016/j.jct.2015.08.022).

The conditions of data set [1]: Crystal; DTA.
Data set [2] is described as follows: Molar enthalpy of transition or fusion. To be noted: Crystal; DSC.

± gives the expanded uncertainty stated by the source.

As for `Nc1ccc(C(=O)O)cc1` [4-aminobenzoic acid], the Normal melting temperature in data set [1] stood at 185.6 ± 0.4 °C. Further, in data set [2], the “Molar enthalpy of transition or fusion” value is 5.98 ± 0.167 kcal/mol.

`NNC(=O)c1ccncc1` [isonicotinic acid hydrazide]: the Normal melting temperature in data set [1] is 170.4 ± 0.4 °C. For the same compound, the “Molar enthalpy of transition or fusion” value in data set [2] was determined as 7.43 ± 0.191 kcal/mol.

`NC(=O)c1cnccn1` [pyrazinecarboxamide]: the Normal melting temperature in data set [1] is 189.4 ± 0.4 °C. Moreover, in data set [2], the “Molar enthalpy of transition or fusion” value came out at 6.48 ± 0.167 kcal/mol.
